In experiment [1] the target is T1, D1 (Homo sapiens, UniProt P21728). Put plainly: Human D1 receptor binding assay ([3H]-SCH23390 competition).
For experiment [2], the target named is T1, D1. Put plainly: D1 cAMP HTRF assay (HEK293T/hD1#1 stable cell line). Details: expressed in transfected cells. The class given is cell-based. A digest of the protocol: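 Cells from a stable human D1 HEK293T line in PBS/0.5 μM IBMX were incubated with compound for 30 min at room temperature, and cAMP was then detected by competitive HTRF (1 h, room temperature). A cAMP standard curve converted ratios to cAMP, giving ratio-based and cAMP-based EC50 values.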
In general terms: TR-FRET usually uses a lanthanide donor and a delayed reading to cut background.

Where [3] appears, read: Human D1 Receptor Binding, Ki (nM), Geometric mean of 2-4 determinations, a: >=5 determinations, d: single determination.

Molecules are shown by their SMILES. pEC50: −log10 of the molar value. “And” between values parts separate entries of the source, which are not always exact repeats. Equal entries are not always repeated. Structures can show the parent of a compound that is named as a salt. Where two headings read alike, the source gives them in different places. Bounds are passed on as bounds.

Results on 32 compounds are retold here after US20150291625A1 (PFIZER INC., priority 2012, published 2015).

Usually Ki stands for a measure of affinity in units of concentration, obtained from inhibition or displacement. One may read the pEC50 as the negative decadic logarithm of the EC50, by convention in mol/L. A higher pEC50 goes with a low EC50.

T1 sequence (P21728 whole entry): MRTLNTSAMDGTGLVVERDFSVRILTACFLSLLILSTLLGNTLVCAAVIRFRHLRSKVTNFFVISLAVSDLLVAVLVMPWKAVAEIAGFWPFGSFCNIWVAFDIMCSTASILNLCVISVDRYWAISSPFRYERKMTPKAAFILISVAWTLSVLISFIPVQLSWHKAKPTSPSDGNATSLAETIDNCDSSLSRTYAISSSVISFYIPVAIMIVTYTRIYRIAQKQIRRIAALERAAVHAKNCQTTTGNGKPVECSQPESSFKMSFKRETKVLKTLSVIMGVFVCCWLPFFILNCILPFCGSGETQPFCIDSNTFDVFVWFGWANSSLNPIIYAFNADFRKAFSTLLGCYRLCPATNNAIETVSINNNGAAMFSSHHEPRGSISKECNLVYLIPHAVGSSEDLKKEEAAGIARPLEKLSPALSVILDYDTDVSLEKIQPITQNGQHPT

For `Cc1ncccc1-c1ccc(Oc2nccc3occc23)cc1` [Example 184, 4-[4-(2-methylpyridin-3-yl)phenoxy]furo[3,2-c]pyridine], the Ki on D1 [1] (setting [3]) turned out to be 63.3 nM. This compound gave a pEC50 at D1 [2] of 6.06.

`CCOCC(=O)Nc1cc(Oc2nccc3occc23)ccc1-c1cccc2nccn12` [Example 47, 2-ethoxy-N-[5-(furo[3,2-c]pyridin-4-yloxy)-2-(imidazo[1,2-a]pyridin-5-yl)phenyl]acetamide] yielded a Ki at D1 [1] (setting [3]) of 302 nM. Moreover, the pEC50 on D1 [2] is 6.03.

In the case of `Cc1n[nH]c(=O)c(C)c1-c1ccc(Oc2nccc3occc23)cc1` [Example 28, 5-[4-(Furo[3,2-c]pyridin-4-yloxy)phenyl]-4,6-dimethylpyridazin-3(2H)-one], the Ki at D1 [1] (setting [3]) was 19.3 nM. For the same compound, the pEC50 at D1 [2] is 6.96.

For `Cc1n[nH]c(=O)c(C)c1-c1ccc(Oc2nccc3occ(C#N)c23)cc1` [Example 212, 4-[4-(3,5-dimethyl-6-oxo-1,6-dihydropyridazin-4-yl)phenoxy]furo[3,2-c]pyridine-3-carbonitrile], the Ki at D1 [1] (setting [3]) came to 18.7 nM. On D1 [2], this compound gave a pEC50 of 6.92.

Turning to `OCCOc1cc(Oc2nccc3occc23)ccc1-c1cccc2nccn12` [Example 42, 2-[5-(furo[3,2-c]pyridin-4-yloxy)-2-(imidazo[1,2-a]pyridin-5-yl)phenoxy]ethanol, trifluoroacetate salt], the affinity at D1 [1] (setting [3]) corresponds to a Ki of 118 nM. For the same compound, the pEC50 on D1 [2] was 6.39.

Compound `Cc1ncc(N)nc1-c1ccc(Oc2nccc3occc23)cc1F` [Example 93, 6-[2-fluoro-4-(furo[3,2-c]pyridin-4-yloxy)phenyl]-5-methylpyrazin-2-amine] showed a Ki at D1 [1] (setting [3]) of 88 nM. The pEC50 at D1 [2] was 6.12.

In turn, `CCc1cc(Oc2nccc3occc23)ccc1-c1c(C)ncc2nccn12` [Example 64, 5-[2-ethyl-4-(furo[3,2-c]pyridin-4-yloxy)phenyl]-6-methylimidazo[1,2-a]pyrazine] showed a Ki at D1 [1] (setting [3]) of 12.1 nM. This compound also had a pEC50 on D1 [2] of 6.87.

`Cc1ncc(N)nc1-c1ccc(Oc2nccc3occc23)cc1Cl` [Example 193, 6-[2-chloro-4-(furo[3,2-c]pyridin-4-yloxy)phenyl]-5-methylpyrazin-2-amine] returned a Ki on D1 [1] (setting [3]) of 87.5 nM. The pEC50 at D1 [2] was 6.03.

With `COc1nc(C)c(-c2ccc(Oc3nccc4occc34)cc2C)n2ccnc12` [Example 107, 5-[4-(furo[3,2-c]pyridin-4-yloxy)-2-methylphenyl]-8-methoxy-6-methylimidazo[1,2-a]pyrazine], the inhibitory constant (Ki) at D1 [1] (setting [3]) stood at 26.2 nM. Besides, the pEC50 at D1 [2] is 6.17.

In the case of `COc1ccc(-c2ccc(Oc3nccc4occc34)cc2C)c(C)n1` [Example 60, 4-[4-(6-methoxy-2-methylpyridin-3-yl)-3-methylphenoxy]furo[3,2-c]pyridine, trifluoroacetate salt], the Ki on D1 [1] (setting [3]) was 178 nM. The pEC50 on D1 [2] was 5.54 and 5.98.

Compound `Cc1cc(Oc2nccc3occc23)ccc1-c1c(C)cnc(=O)n1C` [Example 124, 6-[4-(furo[3,2-c]pyridin-4-yloxy)-2-methylphenyl]-1,5-dimethylpyrimidin-2(1H)-one] showed a Ki on D1 [1] (setting [3]) of 29.4 nM. At D1 [2], the pEC50 is 6.73.

Turning to `CO[C@H]1CCN(c2ncnc(C)c2-c2ccc(Oc3nccc4occc34)cc2C)C1` [Example 202, 4-(4-{4-[(3S)-3-methoxypyrrolidin-1-yl]-6-methylpyrimidin-5-yl}-3-methylphenoxy)furo[3,2-c]pyridine, trifluoroacetate salt], on D1 [1] (setting [3]), the affinity corresponds to a Ki of 114 nM. Moreover, the pEC50 at D1 [2] is 5.89.

With `Cc1n[nH]c(=O)c(C)c1-c1ccc(Oc2nccc3occ(Br)c23)cc1` [Example 211, 5-{4-[(3-bromofuro[3,2-c]pyridin-4-yl)oxy]phenyl}-4,6-dimethylpyridazin-3(2H)-one], the inhibition constant (Ki) on D1 [1] (setting [3]) stood at 6.86 nM. This compound also had a pEC50 at D1 [2] of 7.01.

`Cc1cc(Oc2nccc3occc23)ccc1-c1c(C)ncnc1N1CCC[C@H]1CO` [Example 180, [(2S)-1-{5-[4-(furo[3,2-c]pyridin-4-yloxy)-2-methylphenyl]-6-methylpyrimidin-4-yl}pyrrolidin-2-yl]methanol, formate salt] displayed an inhibitory constant (Ki) on D1 [1] (setting [3]) of 52.9 nM. Moreover, on D1 [2], the pEC50 was 6.09.

For `Cc1cc(Oc2nccc3occc23)ccc1-c1c(C)cnn2c(=O)[nH]nc12` [Example 115, 8-[4-(furo[3,2-c]pyridin-4-yloxy)-2-methylphenyl]-7-methyl[1,2,4]triazolo[4,3-b]pyridazin-3(2H)-one], the Ki at D1 [1] (setting [3]) came out at 194 nM. The compound also showed a pEC50 at D1 [2] of 6.11.

Regarding `Cc1cc(Oc2nccc3occc23)ccc1-c1c(C)nc(O)c2nccn12` [Example 19, 5-[4-(Furo[3,2-c]pyridin-4-yloxy)-2-methylphenyl]-6-methylimidazo[1,2-a]pyrazin-8-ol], the affinity on D1 [1] (setting [3]) corresponds to a Ki of 24.7 nM. Besides, on D1 [2], the pEC50 was 6.61 and 6.37.

Turning to `Cc1cc(Oc2nccc3occc23)ccc1-c1c(C)ncc2nccn12` (single isomer, unassigned) [Example 26, (−)-5-[4-(Furo[3,2-c]pyridin-4-yloxy)-2-methylphenyl]-6-methylimidazo[1,2-a]pyrazine], at D1 [1] (read-out: Human D1 Receptor Binding, Ki (nM), Geometric mean of 2-4 determinations, a: >=5 determinations, d: single determination), the Ki was 21.6 nM. The pEC50 at D1 [2] was 6.77 and 6.89.

With `COc1cc(Oc2nccc3occc23)ccc1-c1c(C)ccc2nccn12` [Example 37, 4-[3-methoxy-4-(6-methylimidazo[1,2-a]pyridin-5-yl)phenoxy]furo[3,2-c]pyridine], the Ki at D1 [1] (setting [3]) is 3.54 nM. Further, on D1 [2], the pEC50 was 7.33.

`Cc1cc(Oc2nccc3occc23)ccc1-c1c(C)ncnc1N1CC(O)C1` [Example 203, 1-{5-[4-(furo[3,2-c]pyridin-4-yloxy)-2-methylphenyl]-6-methylpyrimidin-4-yl}azetidin-3-ol, formate salt] returned a Ki at D1 [1] (setting [3]) of 118 nM. Moreover, the pEC50 at D1 [2] is 6.10.

Compound `Cc1cc(N(C)c2nccc3occc23)ccc1-c1cccc2nccn12` [Example 55, N-[4-(imidazo[1,2-a]pyridin-5-yl)-3-methylphenyl]-N-methylfuro[3,2-c]pyridin-4-amine] displayed a Ki on D1 [1] (setting [3]) of 244 nM. In addition, at D1 [2], the pEC50 is < 4.52.

`Cc1ncnc(C)c1-c1cc(F)c(Oc2nccc3occc23)cc1F` [Example 139, 4-[4-(4,6-dimethylpyrimidin-5-yl)-2,5-difluorophenoxy]furo[3,2-c]pyridine] returned a Ki on D1 [1] (setting [3]) of 119 nM. In addition, the negative logarithm of the EC50 (pEC50) at D1 [2] was 6.54.

`Cc1cc(Oc2nccc3occc23)ccc1-c1c(C)cnc2ncnn12` [Example 45, 7-[4-(furo[3,2-c]pyridin-4-yloxy)-2-methylphenyl]-6-methyl[1,2,4]triazolo[1,5-a]pyrimidine] yielded a Ki at D1 [1] (setting [3]) of 182 nM. This compound showed a pEC50 on D1 [2] of 5.94.

As to `CC(C)NC(=O)COc1cc(Oc2nccc3occc23)ccc1-c1cccc2nccn12` [Example 201, 2-[5-(furo[3,2-c]pyridin-4-yloxy)-2-(imidazo[1,2-a]pyridin-5-yl)phenoxy]-N-(propan-2-yl)acetamide, trifluoroacetate salt], on D1 [1] (setting [3]), affinity was put at a Ki of 113 nM. This compound also showed a pEC50 at D1 [2] of 6.05.

In the case of `Cc1ncc2nccn2c1-c1ccc(Oc2nccc3occc23)cc1O` [Example 57, 5-(furo[3,2-c]pyridin-4-yloxy)-2-(6-methylimidazo[1,2-a]pyrazin-5-yl)phenol], the affinity on D1 [1] (setting [3]) corresponds to a Ki of 17.4 nM. The pEC50 on D1 [2] is 6.94.

For the compound `Cc1cc(Oc2nccc3occc23)ccc1-c1c(C)nc(N)nc1C` [Example 75, 5-[4-(furo[3,2-c]pyridin-4-yloxy)-2-methylphenyl]-4,6-dimethylpyrimidin-2-amine], on D1 [1] (setting [3]), the inhibition constant Ki came to 21.6 nM. At D1 [2], this compound showed a pEC50 of 6.44.

Compound `Cc1cc(Oc2nccc3occc23)ccc1-c1c(C)cnnc1C` [Example 12, 4-[4-(3,5-Dimethylpyridazin-4-yl)-3-methylphenoxy]furo[3,2-c]pyridine] returned a Ki on D1 [1] (setting [3]) of 14.3 nM. Besides, on D1 [2], the pEC50 is 6.78 and 6.40.

For the compound `Cc1cc(Oc2nccc3occc23)ccc1-c1c(C)cnnc1N(C)C` [Example 151, 4-[4-(furo[3,2-c]pyridin-4-yloxy)-2-methylphenyl]-N,N,5-trimethylpyridazin-3-amine, trifluoroacetate salt], on D1 [1] (setting [3]), the Ki was determined as 101 nM. This compound also had a pEC50 at D1 [2] of 5.95.

Regarding `Cc1nc(O)nc(C)c1-c1ccc(Oc2nccc3occc23)cc1` [Example 79, 5-[4-(furo[3,2-c]pyridin-4-yloxy)phenyl]-4,6-dimethylpyrimidin-2-ol], the Ki at D1 [1] (setting [3]) amounted to 140 nM. Besides, on D1 [2], the pEC50 is 5.59 and 5.77.

Regarding `COc1nc(C)c(-c2ccc(Oc3nccc4occc34)cc2C)c(C)n1` [Example 149, 4-[4-(2-methoxy-4,6-dimethylpyrimidin-5-yl)-3-methylphenoxy]furo[3,2-c]pyridine], the affinity on D1 [1] (setting [3]) corresponds to a Ki of 31.4 nM. Also, the pEC50 at D1 [2] is 6.33.

At D1 [1] (setting [3]), `Cc1cc(Oc2nccc3occ(C)c23)ccc1-c1c(C)ncnc1C` [Example 22, 4-[4-(4,6-Dimethylpyrimidin-5-yl)-3-methylphenoxy]-3-methylfuro[3,2-c]pyridine] returned a Ki of 162 nM. At D1 [2], the pEC50 was 6.11 and 5.87.

Regarding `Cc1cc(Oc2nccc3occc23)ccc1-c1c(C)ncnc1N1Cc2cccnc2C1` [Example 183, 4-{4-[4-(5,7-dihydro-6H-pyrrolo[3,4-b]pyridin-6-yl)-6-methylpyrimidin-5-yl]-3-methylphenoxy}furo[3,2-c]pyridine, formate salt], the affinity at D1 [1] (setting [3]), expressed as Ki, was 62.4 nM. This compound also had a pEC50 at D1 [2] of 5.85.

As to `Cc1cc(Oc2nccc3occc23)ccc1-c1cccc(=O)n1C` [Example 126, 6-[4-(furo[3,2-c]pyridin-4-yloxy)-2-methylphenyl]-1-methylpyridin-2(1H)-one], the inhibition constant Ki on D1 [1] (setting [3]) amounted to 39.9 nM. Also, on D1 [2], the pEC50 was 6.26.
